Assays:
complex II = assay: Respiratory chain enzyme activity relative to citrate synthase, complex II; type: cell-based, human; settings: TEX cells, 2.5 μM and 5 μM, 72 hours
Description: FIG. 4. Tigecycline decreases mitochondrial Cox-1 protein levels in TEX cells. (A) Cells from TEX, OCI-AML2 and two primary AML patients were treated with increasing concentrations (2.5 μM and 5 μM) of tigecycline for 36 and 48 hours of tigecycline. Total proteins were extracted and analyzed by western blotting for Cox-1, Cox-2, Cox-4, grp78, XIAP, actin and tubulin. (B) TEX and AML patient cells were treated with increasing concentrations (2.5 μM and 5 μM) of tigecycline. Cox-1, Cox-2, and Cox-4 mRNA expression relative 18S was determined by quantitative RT-PCR. Data is shown as mean±SD. (C) TEX cells were treated with increasing concentrations of tigecycline and chloramphenicol (CAP) for 72 hours. Complex I, II and IV enzyme activity relative to citrate synthase activity was determined as described in materials and methods. […] Mitochondrial membrane potential (ΔΨ) was determined by staining cells with JC-1 dye, and flow cytometry analysis (Red/Green ratio). Reactive oxygen species generation (ROS) was determined by staining with h2-DCFDA and Dihydroethidium (DHE).
The effect of tigecycline treatment on enzyme activity of the respiratory chain complexes relative to the mitochondrial non-respiratory chain enzyme citrate synthase was examined. TEX leukemia cells were treated with tigecycline for […] and then respiratory chain enzyme relative to citrate synthase activity was analyzed. […]

[1] = system: OCI-AML2 human leukemia cells; type: in vivo, SCID mice
Description: FIG. 3. Tigecycline has anti-leukemia activity in vivo. (A, B) Human leukemia cells (OCI-AML2) were injected subcutaneously into the flank of SCID mice. Seven days after injection, once tumors were palpable, mice were treated with tigecycline (50 mg/kg or 100 mg/kg twice daily by i.p. injection) or vehicle control (n=10 per group). Fourteen days after injection of cells, mice were sacrificed, tumors excised and the volume and mass of the tumors were measured. The tumor mass and the mean volume+SD are shown. Differences in tumor volume and mass were analyzed by an unpaired t-test: *p<0.001. (C) Tumours from two control mice, and three tigecycline-treated mice were excised after 5 days of treatment and total proteins were extracted and analyzed by western blotting for Cox-1, Cox-2, Cox-4, and tubulin. (D) Primary cells from three AML patients were injected intra-femorally into the right femur of female sub-lethally irradiated NOD/SCID mice. Three weeks after injection mice were treated with tigecycline (100 mg/kg by i.p. injection daily) or vehicle control (n=10 per group) for three weeks. Following treatment, human leukemia cell engraftment in the injected right femur was measured by FACS analysis for human CD45^+CD19^−CD33^+ cells. Data represent mean±SD of engrafted human cells. Cells from one patient experiment were used to assess secondary engraftment in a second generation of NOD/SCID mice. Equal numbers of viable leukemia cells from bone marrow of control and tigecycline treated mice were injected into irradiated NOD/SCID mice, which were not treated with tigecycline. Six weeks later, human leukemia cell engraftment in the injected right femur was measured by FACS analysis for human CD45^+CD19^−CD33^+cells. (*p<0.005, Student's t-test).
OCI-AML2 human leukemia cells (1×10^6) were injected subcutaneously into the flanks of SCID mice (Ontario Cancer Institute, Toronto, ON). Seven days after injection, once tumours were palpable, mice were treated with tigecycline twice daily (50 mg/kg or 100 mg/kg by i.p. injection) or vehicle control (n=10 per group) for 14 days. Tumor volume (tumor length x width^2×0.5236) was measured three times a week using calipers. Twenty-one days after injection of cells, mice were sacrificed, tumors excised and the volume and mass of the tumors were measured.
Given the effects of tigecycline as a potential anti-leukemia agent, tigecycline in mouse models of leukemia was evaluated. To evaluate the anti-tumor efficacy of tigecycline in vivo, human OCI-AML2 leukemia cells were injected into the flank of SCID mice. […] Tumor volume and mass were measured over time (FIG. 3A, B). […]

primary human AML cells = type: in vivo, NOD-SCID mice
Description: FIG. 3. Tigecycline has anti-leukemia activity in vivo. (A, B) Human leukemia cells (OCI-AML2) were injected subcutaneously into the flank of SCID mice. Seven days after injection, once tumors were palpable, mice were treated with tigecycline (50 mg/kg or 100 mg/kg twice daily by i.p. injection) or vehicle control (n=10 per group). Fourteen days after injection of cells, mice were sacrificed, tumors excised and the volume and mass of the tumors were measured. The tumor mass and the mean volume+SD are shown. Differences in tumor volume and mass were analyzed by an unpaired t-test: *p<0.001. (C) Tumours from two control mice, and three tigecycline-treated mice were excised after 5 days of treatment and total proteins were extracted and analyzed by western blotting for Cox-1, Cox-2, Cox-4, and tubulin. […] Following treatment, human leukemia cell engraftment in the injected right femur was measured by FACS analysis for human CD45^+CD19^−CD33^+ cells. […] Six weeks later, human leukemia cell engraftment in the injected right femur was measured by FACS analysis for human CD45^+CD19^−CD33^+cells. […]
To assess tigecycline in mouse models of primary AML, primary human AML cells were isolated form a fresh peripheral blood sample from a patient with AML. A frozen aliquot was thawed, counted and resuspended in PBS. […]

[2] = intravenous doses of 300 mg; cited from earlier work
[3] = 50 mg/kg or 100 mg/kg twice daily i.p., 14 days

CN(C)c1cc(NC(=O)CNC(C)(C)C)c(O)c2c1C[C@H]1C[C@H]3[C@H](N(C)C)C(O)=C(C(N)=O)C(=O)[C@@]3(O)C(O)=C1C2=O [tigecycline]
complex II activity relative to citrate synthase (complex II): less affected | expression of Cox-1 and Cox-2 relative to Cox-4 in tumours ([1]; 50 mg/kg bid for 5 days, western blotting): preferential decreased expression | decrease of tumor mass compared to vehicle control [1, 3]: up to 70% | decrease of tumor volume compared to vehicle control [1, 3]: up to 70% | toxicity in treated mice ([1]; mouse, in vivo): No evidence of toxicity | engraftment of human AML primary cells (CD45+CD33+CD19-) (primary human AML cells; 100 mg/kg i.p. daily for three weeks): significantly decreased | toxicity in treated mice (primary human AML cells; mouse, in vivo): without gross organ toxicity or loss of body weight | tolerability [2]: well tolerated save for mild nausea

Reference: US20140221301A1, “COMBINATION TREATMENT FOR CANCER” (priority 2011, published 2014)
